ChEMBL document CHEMBL1201862, “PubChem BioAssay data set” (2004)
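The compound was tested at five concentrations on cells cultured in 96-well plates, with a 48-hour exposure period. GI50 = concentration required for 50% inhibition of growth.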 Calls of active or inactive are those of the source. No stated cut-off is given here; in the data, active = GI50 up to about 1.1 µM and inactive = higher.

Tests used:
Experiment in all cases: DTP human tumour cell line panel, 48 h
[1] = test system: Hs-578T
[2] = test system: DMS-114
[3] = test system: LXFL 529
[4] = test system: KM-20L2
[5] = test system: M19-MEL
[6] = test system: XF498
[7] = test system: SNB-78
[8] = test system: HOP-18
[9] = test system: RXF 631

Measured: GI50

CCOC(=O)/C(C(N)=O)=C(/O)c1cnccn1
inactive: [1] > 100 µM

COC(=O)c1c(O)ccc2c1c1c(n2CCc2ccc(OC)c(OC)c2)C(=O)c2ccccc2C1=O
inactive: [1] 10.9 µM

COc1ccc(NC(=O)CC/C(CC(=O)C(C)(C)C)=N\NC(=O)C(N)=O)cc1
inactive: [2] > 100 µM | [3] 79.4 µM | [4] > 100 µM | [5] > 100 µM

N#CC(=C1CCN(CCCC(=O)c2ccc(F)cc2)CC1)c1ccccc1
inactive: [1] > 100 µM

N#C/C(=C/c1ccc2c(c1)OCO2)C(=O)c1ccccc1
inactive: [3] > 100 µM | [4] > 100 µM | [6] > 100 µM | [7] > 100 µM | [8] > 100 µM | [5] > 100 µM

COC(=O)C1CCCC2(C1)OCCO2 (stereo not drawn)
inactive: [2] > 100 µM | [3] > 100 µM | [4] > 100 µM | [7] > 100 µM | [9] > 100 µM | [8] > 100 µM | [5] > 100 µM

Cc1ccc(S(=O)(=O)N/N=C(/CC(=O)c2c(C)[n+]([O-])c3ccccc3[n+]2[O-])C(=O)Nc2ccc(C)c(C)c2)cc1
inactive: [2] 19.6 µM | [3] > 100 µM | [4] > 100 µM | [7] > 100 µM | [9] > 100 µM | [8] > 100 µM | [5] 17.9 µM

Nc1nc(Cl)cc(NCC(O)CO)n1 (stereo not drawn)
inactive: [2] > 100 µM | [3] > 100 µM | [4] > 100 µM | [6] > 100 µM | [7] > 100 µM | [8] > 100 µM | [5] > 100 µM

O=C1C=CC(=O)c2ccc(=O)ccc21
inactive: [2] 9.16 µM | [3] 2.54 µM | [1] 36.6 µM | [4] 22.2 µM | [7] 25.9 µM | [9] 14.4 µM | [8] 19.4 µM | [5] 7.55 µM

CC(=O)OC[C@H]1CN(OC(C)=O)C[C@@H](n2cc(C)c(=O)[nH]c2=O)O1
inactive: [1] > 100 µM
